Data from US20110046220A1, “PARABEN COMPOUNDS” (CENTRE NATIONAL DE LA RECHERCHE SCIENTIFIQUE, priority 2007, published 2011).
In brackets after ≈: the same amount, converted by molar mass. Several values for one entry are separate records, joined by “and”; a condition that tells them apart may be missing. Identical values can stand only once. Like-named read-outs stand apart in the source and are kept apart here.

Tests used:
Format in all cases: cell-based
[1] = system: Staphylococcus aureus strain ATCC 6538; experiment: MIC determination by twofold dilution in microplates against Staphylococcus aureus; conditions: for MIC: Staphylococcus aureus
Experimental: Antimicrobial activity was tested by inhibition of growth of Gram positive bacteria Staphylococcus aureus strain ATCC 6538. All extracts and bacterial isolates from the sponge were screened for this antibacterial activity. Extracts and bacterial strains were also tested against gram negative gamma-proteobacteria (including Vibrios) and alpha-proteobacteria (Rhodobacterales), against Gram positive Bacillales (including Bacillus sp.) and against the yeast Candida albicans.
MICs of each of the compounds 1-9 according to the invention and of commercial methyl- and propyl parabens of the prior art were determined by a twofold dilution method from an initial 100 μg/mL concentration. […] Microplates were incubated for 24 hours at 30° C. with shaking (500 rpm) and optical density at 600 nm was read to estimate bacterial growth. The methyl- and propyl parabens of the prior art were obtained from the company Interchimie in Bobigny, France. […]
The results are reported in the following table 3 in which the MIC is reported in μg/ml and expressed, as in table 1, as the interval a-b, where a is the highest concentration tested at which microorganism are growing and b the lowest concentration that causes 100% growth inhibition.

[2] = system: Staphylococcus aureus (ATCC 6538); experiment: MBC determination by subculturing wells with no visible growth onto agar plates; conditions: for MBC/MIC ratio / bactericidal or bacteriostatic effect (from MBC/MIC ratio): S. aureus; for MBC: Staphylococcus aureus, ATCC6538
Experimental: MBCs were determined to estimate bacterial survival in wells with no visible growth after 24 h by subculturing onto agar plates to count the number of colony-forming-units (CFU/mL).
In order to determine whether the growth inhibition observed against S. aureus was relevant either of a bactericidal or a bacteriostatic effect, the ratio MBC/MIC was calculated.

[3] = system: Microbulbifer sp. strain L4-N2; experiment: Antibiotic resistance/sensitivity of bacteria of the strain L4-N2; conditions: kanamycine 30UI; ceftazidime 30 μg
Experimental: Bacteria of the strain L4-N2 are gram negative, aerobic, rod-shaped, and approximately 1 μm wide by 5 to 7 μm long. They form smooth, convex and mucoid colonies, and produce a non-diffusible brown pigment. They use glucose and display beta-galactosidase, catalase, and gelatinase activities. They are resistant to ampicillin, penicillin and oxacillin and sensitive to kanamycine (30UI) and ceftazidime (30 μg).

[4] = ATCC6538, S. aureus ATCC 6538, 24 hours at 30° C., interval a-b (a highest concentration with growth, b lowest with 100% growth inhibition), triplicate, read-out: MIC
[5] = ATCC6538, S. aureus ATCC 6538, 24 hours at 30° C., interval a-b, triplicate, read-out: MIC
[6] = S. aureus ATCC 6538, lowest concentration yielding colony counts <0.1% of the initial inoculum, read-out: MBC

Molecule | MIC [1, 4] | MIC [1, 5] | MBC/MIC ratio [2] | MBC [2, 6] | MIC ([1]; ATCC6538, 24 h) | MBC [2] | bactericidal or bacteriostatic effect (from MBC/MIC ratio) [2] | factor of enhancement of antimicrobial activity by unsaturation of the alkyl chain (compound 9 vs compound 8) ([1]; S. aureus, compared MIC values) | resistance or sensitivity of strain L4-N2 bacteria to the antibiotic [3]
CCOC(=O)c1ccc(O)cc1 [Compound 1, 4-Hydroxy-benzoic acid ethyl ester] | > 602 µM | > 100 µg/mL | >16 | > 100 µg/mL |  |  |  |  | 
CCCCOC(=O)c1ccc(O)cc1 [Compound 2, 4-Hydroxy-benzoic acid butyl ester] |  |  | >16 |  | 129 µM to 258 µM and 25 µg/mL to 50 µg/mL | > 100 µg/mL |  |  | 
CCCCCCCCOC(=O)c1ccc(O)cc1 [Compound 3, 4-Hydroxy-benzoic acid octyl ester] | 100 to 200 µM | 25 to 50 µg/mL | 2 | 50 to 100 µg/mL (≈ 200 to 399 µM) |  |  | bactericidal (If MBC/MIC is less than 4, the compound is bactericidal) |  | 
CCCCCCCCCCOC(=O)c1ccc(O)cc1 [Compound 4, 4-Hydroxy-benzoic acid decyl ester] | 2.8 to 5.6 µM | 0.78 to 1.56 µg/mL | 16 | 12.5 to 25 µg/mL (≈ 44.9 to 89.8 µM) |  |  | bacteriostatic (if MBC/MIC is between 8 and 16 and above 16, the compound is bacteriostatic) |  | 
CCCCCCCC(O)CCOC(=O)c1ccc(O)cc1 (stereo not shown) [Compound 5, 4-Hydroxy-benzoic acid 3-hydroxy-decyl ester] | 85 to 170 µM | 25 to 50 µg/mL | >16 | > 100 µg/mL |  |  |  |  | 
CC(C)CCCCCCCCOC(=O)c1ccc(O)cc1 [Compound 6] | 42.8 to 85.6 µM | 12.5 to 25 µg/mL | 2 | 25 to 50 µg/mL (≈ 85.5 to 171 µM) |  |  | bactericidal (If MBC/MIC is less than 4, the compound is bactericidal) |  | 
CC(C)CCCCCC(O)CCOC(=O)c1ccc(O)cc1 (stereo not shown) [Compound 7] | 40.5 to 81.1 µM | 12.5 to 25 µg/mL | 2 | 25 to 50 µg/mL (≈ 81.1 to 162 µM) |  |  | bactericidal (If MBC/MIC is less than 4, the compound is bactericidal) |  | 
CCCCCCCCCCCCOC(=O)c1ccc(O)cc1 [Compound 8, 4-Hydroxy-benzoic acid dodecyl ester] | 81.6 to 163 µM | 25 to 50 µg/mL | >16 | > 100 µg/mL |  |  |  |  | 
CCCCCC/C=C/CCCCOC(=O)c1ccc(O)cc1 [Compound 9, 4-Hydroxy-benzoic acid dodec-5-enyl ester] | 20.5 to 41.1 µM | 6.25 to 12.5 µg/mL | 8 | 50 to 100 µg/mL (≈ 164 to 328 µM) |  |  | bacteriostatic (if MBC/MIC is between 8 and 16 and above 16, the compound is bacteriostatic) | 4 | 
COC(=O)c1ccc(O)cc1 [Methyl paraben, reference compound] | 329 to 658 µM | 50 to 100 µg/mL |  | > 100 µg/mL |  |  |  |  | 
CCCOC(=O)c1ccc(O)cc1 [Propyl paraben, reference compound] | 278 to 556 µM | 50 to 100 µg/mL |  | > 100 µg/mL |  |  |  |  | 
CC1(C)S[C@@H]2[C@H](NC(=O)[C@H](N)c3ccccc3)C(=O)N2[C@H]1C(=O)O [ampicillin] |  |  |  |  |  |  |  |  | resistant
CC(C)(O/N=C(\C(=O)N[C@@H]1C(=O)N2C(C(=O)[O-])=C(C[n+]3ccccc3)CS[C@H]12)c1csc(N)n1)C(=O)O [ceftazidime] |  |  |  |  |  |  |  |  | sensitive
NC[C@H]1O[C@H](O[C@H]2[C@H](O)[C@@H](O[C@H]3O[C@H](CO)[C@@H](O)[C@H](N)[C@H]3O)[C@H](N)C[C@@H]2N)[C@H](O)[C@@H](O)[C@@H]1O [kanamycine] |  |  |  |  |  |  |  |  | sensitive
Cc1onc(-c2ccccc2)c1C(=O)N[C@@H]1C(=O)N2[C@@H]1SC(C)(C)[C@@H]2C(=O)O [oxacillin] |  |  |  |  |  |  |  |  | resistant
penicillin |  |  |  |  |  |  |  |  | resistant
